Literature values, collected in patent publication US20120121700A1, “PHARMACEUTICAL FORMULATIONS COMPRISING VALGANCICLOVIR” (priority 2010, published 2012).

Conditions: oral administration; background statement taken from U.S. Pat. No. 6,083,953

| SMILES | bioavailability when administered orally |
| --- | --- |
| CC(C)[C@H](N)C(=O)OCC(CO)OCn1cnc2c(=O)[nH]c(N)nc21.Cl (stereo partly drawn) [Valganciclovir hydrochloride, L-valine, 2-[(2-amino-1,6-dihydro-6-oxo-9H-purin-9-yl)methoxy]-3-hydroxypropyl ester, monohydrochloride] | better bioavailability than ganciclovir given orally |
| Nc1nc(O)c2ncn(COC(CO)CO)c2n1 [gancilcovir, ganciclovir] | poor |
